For orientation: IC50 means the concentration that gives 50% inhibition. A word on the AC50: it is the concentration giving half of the maximal activity seen. As a reminder, the CC50 is the concentration giving 50% cytotoxicity.

Assay [1] addresses T1, Sentrin-specific protease 6 (Homo sapiens, UniProt Q9GZR1).
T1 sequence (Q9GZR1 whole entry): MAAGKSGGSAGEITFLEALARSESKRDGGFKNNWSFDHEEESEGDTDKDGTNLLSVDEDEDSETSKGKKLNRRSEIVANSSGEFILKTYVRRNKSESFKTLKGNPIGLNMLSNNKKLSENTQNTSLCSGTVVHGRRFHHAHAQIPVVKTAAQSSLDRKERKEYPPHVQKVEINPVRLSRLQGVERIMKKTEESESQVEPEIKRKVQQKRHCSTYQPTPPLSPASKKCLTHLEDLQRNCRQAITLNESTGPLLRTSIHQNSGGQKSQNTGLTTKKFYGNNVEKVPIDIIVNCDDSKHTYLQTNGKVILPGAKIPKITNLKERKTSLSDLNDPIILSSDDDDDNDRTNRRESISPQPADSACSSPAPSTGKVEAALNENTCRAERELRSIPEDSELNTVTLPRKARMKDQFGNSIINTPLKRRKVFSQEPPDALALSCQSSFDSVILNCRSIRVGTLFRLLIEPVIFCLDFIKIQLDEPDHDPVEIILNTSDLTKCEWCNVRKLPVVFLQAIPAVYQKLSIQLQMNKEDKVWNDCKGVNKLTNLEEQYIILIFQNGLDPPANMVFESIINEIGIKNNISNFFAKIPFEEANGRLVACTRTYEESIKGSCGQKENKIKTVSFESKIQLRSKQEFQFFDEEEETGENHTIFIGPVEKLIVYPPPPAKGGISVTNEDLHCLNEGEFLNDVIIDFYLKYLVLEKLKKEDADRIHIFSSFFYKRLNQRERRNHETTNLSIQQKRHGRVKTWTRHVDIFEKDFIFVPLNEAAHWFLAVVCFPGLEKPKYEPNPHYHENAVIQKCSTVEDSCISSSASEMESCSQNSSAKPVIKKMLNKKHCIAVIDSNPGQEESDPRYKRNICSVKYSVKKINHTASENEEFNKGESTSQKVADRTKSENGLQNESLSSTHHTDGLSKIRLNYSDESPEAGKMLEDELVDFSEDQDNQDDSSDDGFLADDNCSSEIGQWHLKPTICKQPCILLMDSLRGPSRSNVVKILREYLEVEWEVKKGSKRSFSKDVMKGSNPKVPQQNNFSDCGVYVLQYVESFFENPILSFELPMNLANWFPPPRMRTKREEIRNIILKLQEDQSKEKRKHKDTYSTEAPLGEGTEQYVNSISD
Type of assay: functional.

The target in assay [2] is T2, Caspase-3 (Homo sapiens, UniProt P42574).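 Note: Dose-response selectivity test against caspase-3 for candidate inhibitors of sentrin-specific proteases (SENPs).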
T2 sequence (P42574 whole entry): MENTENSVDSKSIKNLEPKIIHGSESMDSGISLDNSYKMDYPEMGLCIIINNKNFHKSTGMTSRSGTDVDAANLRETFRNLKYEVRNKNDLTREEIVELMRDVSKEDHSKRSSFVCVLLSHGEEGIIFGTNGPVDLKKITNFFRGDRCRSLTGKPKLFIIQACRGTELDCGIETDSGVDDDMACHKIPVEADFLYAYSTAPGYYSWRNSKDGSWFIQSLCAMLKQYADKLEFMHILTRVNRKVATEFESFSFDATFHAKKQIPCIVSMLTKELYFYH
Format: functional.

Assay [3] concerns INS1. The assay is described as follows: beta cell apoptosis inhibitors, cytokine rescue, dose response, luminescence, retest (AID 449756).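 Note: cell death triggered by IL-1 beta plus TNF-alpha plus IFN-gamma mixture; protective hits raise ATP signal compared with cytokine alone wells.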 Type of assay: functional, cell-based. The settings on record: Rattus norvegicus.
Assay [4] has as its target T3, Sentrin-specific protease 8 (Homo sapiens, UniProt Q96LD8).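 Note: luminescence read-out of SENP8 inhibition, dose-response confirmation following an ultra-high-throughput screen.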
T3 sequence (Q96LD8 whole entry): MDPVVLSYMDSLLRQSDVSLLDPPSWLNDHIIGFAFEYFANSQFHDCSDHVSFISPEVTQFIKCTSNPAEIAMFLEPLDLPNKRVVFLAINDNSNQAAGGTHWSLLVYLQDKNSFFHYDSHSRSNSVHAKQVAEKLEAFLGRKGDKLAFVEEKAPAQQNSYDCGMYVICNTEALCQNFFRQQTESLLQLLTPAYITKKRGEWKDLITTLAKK
Type of assay: functional.

Assay [5] concerns the target T4, Sentrin-specific protease 7 (Homo sapiens, UniProt Q9BQF6).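 Note: Luminescence-based dose-response confirmation of ultra-high-throughput screening hits, measuring inhibition of SENP7.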
T4 sequence (Q9BQF6 whole entry): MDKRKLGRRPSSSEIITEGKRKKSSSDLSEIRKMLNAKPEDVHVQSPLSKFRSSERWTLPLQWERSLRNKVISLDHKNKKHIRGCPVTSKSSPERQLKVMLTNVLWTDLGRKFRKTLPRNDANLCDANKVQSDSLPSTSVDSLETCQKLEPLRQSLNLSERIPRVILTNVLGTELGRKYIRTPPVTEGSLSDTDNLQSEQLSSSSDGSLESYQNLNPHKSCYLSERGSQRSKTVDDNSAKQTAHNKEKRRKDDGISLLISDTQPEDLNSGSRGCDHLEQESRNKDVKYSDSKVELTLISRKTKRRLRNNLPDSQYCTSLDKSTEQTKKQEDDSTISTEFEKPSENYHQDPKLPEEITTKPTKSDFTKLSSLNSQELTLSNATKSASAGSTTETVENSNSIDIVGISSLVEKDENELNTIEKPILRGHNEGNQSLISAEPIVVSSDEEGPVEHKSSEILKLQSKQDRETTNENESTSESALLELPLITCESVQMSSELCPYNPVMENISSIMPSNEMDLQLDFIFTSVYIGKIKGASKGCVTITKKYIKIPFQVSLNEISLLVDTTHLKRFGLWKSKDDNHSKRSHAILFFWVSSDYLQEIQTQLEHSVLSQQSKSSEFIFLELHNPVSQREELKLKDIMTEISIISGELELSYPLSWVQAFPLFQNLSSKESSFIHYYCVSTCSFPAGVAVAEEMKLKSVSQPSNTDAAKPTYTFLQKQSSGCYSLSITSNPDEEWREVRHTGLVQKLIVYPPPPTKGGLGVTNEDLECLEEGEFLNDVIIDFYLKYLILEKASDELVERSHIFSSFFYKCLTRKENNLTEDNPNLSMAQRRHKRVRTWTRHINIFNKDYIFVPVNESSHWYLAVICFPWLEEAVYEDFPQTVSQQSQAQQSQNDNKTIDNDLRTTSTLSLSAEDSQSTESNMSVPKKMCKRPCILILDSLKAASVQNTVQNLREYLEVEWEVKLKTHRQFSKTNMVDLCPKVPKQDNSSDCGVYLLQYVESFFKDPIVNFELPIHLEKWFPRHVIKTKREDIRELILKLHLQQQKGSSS
Format: functional.

Assay [6] addresses T5, Corticotropin-releasing factor receptor 2/Corticotropin-releasing factor-binding protein (Homo sapiens, UniProt P24387+Q13324).
T5 sequence (Q13324 whole entry): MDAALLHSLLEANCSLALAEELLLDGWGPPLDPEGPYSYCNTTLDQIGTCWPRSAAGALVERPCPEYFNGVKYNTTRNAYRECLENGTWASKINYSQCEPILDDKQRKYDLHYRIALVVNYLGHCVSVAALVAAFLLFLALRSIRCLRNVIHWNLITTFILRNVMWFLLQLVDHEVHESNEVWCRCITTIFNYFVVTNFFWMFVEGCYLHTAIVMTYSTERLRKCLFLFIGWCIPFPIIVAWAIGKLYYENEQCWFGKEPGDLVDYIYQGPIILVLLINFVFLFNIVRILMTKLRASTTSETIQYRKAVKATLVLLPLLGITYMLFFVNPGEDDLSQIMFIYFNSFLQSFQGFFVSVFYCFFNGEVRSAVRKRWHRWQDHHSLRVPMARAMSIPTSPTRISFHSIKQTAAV
T5 sequence (P24387 whole entry): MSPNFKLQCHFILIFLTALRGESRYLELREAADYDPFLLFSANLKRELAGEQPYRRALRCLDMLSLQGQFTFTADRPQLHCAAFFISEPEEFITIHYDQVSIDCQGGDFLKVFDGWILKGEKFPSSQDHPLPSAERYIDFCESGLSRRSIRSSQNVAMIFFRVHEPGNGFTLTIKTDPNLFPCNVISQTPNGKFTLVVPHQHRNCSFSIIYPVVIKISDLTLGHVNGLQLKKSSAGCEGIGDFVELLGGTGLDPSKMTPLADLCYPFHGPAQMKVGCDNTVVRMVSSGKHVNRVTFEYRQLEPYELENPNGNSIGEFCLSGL
In words: activators of CRF receptor 2 with binding protein – uHTS hits, confirmation (AID 602473). Type of assay: functional. The following applies: read-out: EC50_Mean.

The target in assay [7] is T6, Short transient receptor potential channel 4 (Mus musculus, UniProt Q9QUQ5).
T6 sequence (Q9QUQ5 whole entry): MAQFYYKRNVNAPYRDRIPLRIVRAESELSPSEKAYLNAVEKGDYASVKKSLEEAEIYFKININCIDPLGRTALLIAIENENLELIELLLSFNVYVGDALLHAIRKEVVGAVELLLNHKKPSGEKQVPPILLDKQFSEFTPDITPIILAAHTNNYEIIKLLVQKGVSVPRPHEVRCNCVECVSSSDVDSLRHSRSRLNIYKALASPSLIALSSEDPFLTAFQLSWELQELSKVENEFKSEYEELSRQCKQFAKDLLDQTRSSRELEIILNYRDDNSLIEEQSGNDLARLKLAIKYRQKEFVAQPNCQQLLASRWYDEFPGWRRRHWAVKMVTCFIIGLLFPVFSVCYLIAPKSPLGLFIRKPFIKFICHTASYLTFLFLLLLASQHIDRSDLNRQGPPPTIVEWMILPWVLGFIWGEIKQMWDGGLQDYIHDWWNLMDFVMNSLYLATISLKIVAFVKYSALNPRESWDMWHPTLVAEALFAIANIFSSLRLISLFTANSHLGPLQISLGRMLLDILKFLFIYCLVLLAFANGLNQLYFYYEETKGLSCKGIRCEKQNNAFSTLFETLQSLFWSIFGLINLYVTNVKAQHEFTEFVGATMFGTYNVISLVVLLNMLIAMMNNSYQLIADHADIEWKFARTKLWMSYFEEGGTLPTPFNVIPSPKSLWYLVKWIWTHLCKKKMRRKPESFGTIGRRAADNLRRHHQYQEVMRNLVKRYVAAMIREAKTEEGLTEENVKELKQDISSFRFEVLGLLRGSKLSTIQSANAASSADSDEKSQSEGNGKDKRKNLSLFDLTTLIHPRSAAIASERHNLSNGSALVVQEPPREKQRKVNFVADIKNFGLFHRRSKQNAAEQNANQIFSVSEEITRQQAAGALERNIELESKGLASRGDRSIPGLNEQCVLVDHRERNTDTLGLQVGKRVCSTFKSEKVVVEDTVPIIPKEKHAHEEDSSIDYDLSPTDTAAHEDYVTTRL
In words: mouse TRPC4 channel activators, dose response, cell-based, HEK293 TRPC4/mu-opioid, Fluo-4 calcium (AID 434937). Format: functional.

In assay [8] the target is Induced myeloid leukemia cell differentiation protein Mcl-1 (Homo sapiens, UniProt Q07820). Type of assay: functional.
A short description of assay [9]: HEp-2 cell cytotoxicity, dose response, cytotoxicity control for RSV inhibitor project, HTS (AID 2410). Format: functional. The settings on record: human respiratory syncytial virus.
Assay [10] addresses Glyceraldehyde-3-phosphate dehydrogenase (Homo sapiens, UniProt P04406).
The test system of assay [11] is Vero. The assay is described as follows: cells. Format: functional. The following applies: Chlorocebus sabaeus.

The source made the active and inactive calls.

Sequence of Glyceraldehyde-3-phosphate dehydrogenase (P04406 whole entry): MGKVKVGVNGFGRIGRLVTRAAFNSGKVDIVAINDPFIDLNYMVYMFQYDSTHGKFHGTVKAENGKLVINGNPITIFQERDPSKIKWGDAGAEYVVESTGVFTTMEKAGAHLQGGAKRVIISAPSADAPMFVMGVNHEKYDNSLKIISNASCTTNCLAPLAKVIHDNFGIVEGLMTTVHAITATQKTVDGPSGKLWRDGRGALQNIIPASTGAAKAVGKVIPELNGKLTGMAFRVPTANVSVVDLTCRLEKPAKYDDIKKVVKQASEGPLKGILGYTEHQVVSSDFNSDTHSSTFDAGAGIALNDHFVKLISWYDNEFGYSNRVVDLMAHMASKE
Sequence of Induced myeloid leukemia cell differentiation protein Mcl-1 (Q07820 whole entry): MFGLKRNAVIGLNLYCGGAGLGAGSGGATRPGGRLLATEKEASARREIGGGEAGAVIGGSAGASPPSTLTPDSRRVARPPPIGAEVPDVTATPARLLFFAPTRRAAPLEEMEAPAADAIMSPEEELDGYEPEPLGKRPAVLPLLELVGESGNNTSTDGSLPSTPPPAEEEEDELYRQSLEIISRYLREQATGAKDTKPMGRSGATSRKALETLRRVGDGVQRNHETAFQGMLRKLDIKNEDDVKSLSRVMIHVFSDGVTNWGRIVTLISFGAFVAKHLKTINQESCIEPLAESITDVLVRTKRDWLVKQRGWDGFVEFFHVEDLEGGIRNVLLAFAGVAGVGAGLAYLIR

As to `O=C(Nc1ccc(-c2noc(-c3cccs3)n2)cc1)c1cccnc1`, the IC50 was 76.2 µM (active) in [1], 54.8 µM (active) in assay [2], > 100 µM (inactive) in [4] and 7.2 µM (active) in [5]. The AC50 in assay [3] was 6.36 µM (active).

On to `Cn1c2ccccc2c(=O)c2c(=O)n(C3CCCCCC3)c(C3CCCCC3)nc21`, for which, in [6], the EC50 is 4.04 µM (active).

As to `COc1ccc(NC(=O)c2csc3c2CCCC3)cc1`, the IC50 was > 100 µM (inactive) in [1], 19.2 µM (active) in assay [2], > 100 µM (inactive) in assay [4] and 7.25 µM (active) in [5].

As to `COc1cc(OC)cc(C(=O)N[C@H](C(=O)OCC(=O)NC(C)c2ccccc2)C(C)C)c1` (stereo partly drawn), the EC50 was 16.4 µM (active) in assay [6] and 6.68 µM (active) in assay [7].

Take `O=c1c2ccccc2nc(-c2ccco2)n1-c1cccnc1`: in assay [8], the IC50 is < 0.4 µM (not active).

With `CCO/C=C1\C(=O)N(c2ccccc2)C(=O)c2ccccc21`, the half-maximal inhibitory concentration (IC50) in [1] was 16.6 µM (active); in assay [2] it was 6.63 µM (active); in [4], 50.7 µM (active); in assay [5] it was 36.9 µM (active).

For `C=CCn1c2ccccc2c(=O)c2cc(C#Cc3ccccn3)ccc21`, the IC50 in assay [1] is 14.1 µM (active); in assay [2], 17.5 µM (active); in assay [4], 20.8 µM (active); in assay [5], 5.93 µM (active). Further, the half-maximal cytotoxic concentration (CC50) in assay [9] is 25.1 µM (active).

As to `CCN1CCN(C2=C(Cl)C(=O)N(c3ccc(C(F)(F)F)cc3)C2=O)CC1`, in assay [10], the 50% inhibitory concentration (IC50) was > 50 µM (inconclusive).

Consider `CSc1ccc(/C=C/C(=O)c2ccc(O)cc2)cc1`, for which the CC50 in assay [11] was 23.8 µM (active). Besides, the IC50 in assay [1] was 9.4 µM (active); in [2], 19.9 µM (active); in assay [4], 13.4 µM (active); in assay [5], 4.77 µM (active).

Values taken from ChEMBL document CHEMBL1201862, “PubChem BioAssay data set” (2004).
